Tests used:
[1] = Static contact angle of ultrapure water on sample pelleted or deposited as film (Krüss Easy Drop); format: physicochemical; conditions: 8 μL milliQ water drop, mean with standard deviation, 0 = complete wettability; for Contact angle on pellet: pelleted sample; for Contact angle on film (°): sample deposited as film
Protocol: 1.4 Contact angle measurements on hydrophobic substrates treated according to the process of the present invention (see section 1 of the experimental part).
The experimental measurements reported hereinafter relate to the study of the wettability characteristics of powdered samples before and after the process according to the present invention. The determination of the static contact angle of ultrapure water (also referred to as grade 1) was carried out on the surface of the sample pelleted or deposited in the form of film, according to methods known in the state of the art and as reported in [1] Nowak et al. Powder Technology 233 (2013) 52-64, e in [2] Bachmann and McHale, European Journal of Soil Science, 60 (2009) 420-430. The determinations were carried out using a Krüss Easy Drop instrument using drops of 8 μL of milliQ water. The behaviour of the drop in the first seconds from the deposition was analysed by recording 30-second video at 25 fps (frames per second): the contact angle considered is the equilibrium value or the final one at the end of the recording. Each sample was analysed both deposited in the form of film and pelleted and at least 3 independent contact angle determinations were carried out for each sample.
5 different types of powders were analysed; each of them was analysed both in the unmodified form thereof (as such) and after the process according to the present invention. In the case of the PEA (Palmitoylethanolamide) powder, a second batch of sample was analysed, for which only measurements on film were carried out. The results of the determinations are reported in Table IV: the mean contact angle value with standard deviation relative to the measurements on pellet and on film are reported. In case of complete wettability of the sample, an angle of 0° is reported. Overall, a greater correspondence of the wettability data measured on film with the dispersibility data observed experimentally (visual observation) is observed. This observation is in good agreement with the literature; the less representativeness of the measurements on pellets can be linked in some cases to absorption phenomena linked to the porosity of the pellet or to alterations of the surface free energy of the powder during pelletisation due to the applied pressure.

[2] = Visual evaluation of the degree of wettability of solid formulations poured into water; format: physicochemical; conditions: for Visual degree of wettability of the solid formulation: process of the invention, fluid bed, 1.5 g in 100 ml water at room temperature
[3] = comparison process (A) dry mixing in a cube (1 kg), charging agent maltodextrin, 50%/50%
[4] = comparison process (A) dry mixing in a cube (1 kg), charging agent maltodextrin, 70%/30%
[5] = comparison process (A) dry mixing in a cube (1 kg), charging agent mannitol, 50%/50%
[6] = comparison process (A) dry mixing in a cube (1 kg), charging agent mannitol, 70%/30%
[7] = comparison process (A) dry mixing in a cube (1 kg), charging agent sugar, active/charging agent 50%/50%
[8] = comparison process (A) dry mixing in a cube (1 kg), charging agent sugar, active/charging agent 70%/30%
[9] = comparison process (B) wet granulations (1.5 kg), charging agent maltodextrin, 50%/50%
[10] = comparison process (B) wet granulations (1.5 kg), charging agent maltodextrin, 70%/30%
[11] = comparison process (B) wet granulations (1.5 kg), charging agent mannitol, 50%/50%
[12] = comparison process (B) wet granulations (1.5 kg), charging agent mannitol, 70%/30%
[13] = comparison process (B) wet granulations (1.5 kg), charging agent sugar, 50%/50%
[14] = comparison process (B) wet granulations (1.5 kg), charging agent sugar, 70%/30%
[15] = comparison process (C) wet granulation in a fluid bed granulator (1.5 kg), atomised water about 300-400 g, charging agent maltodextrin, 50%/50%
[16] = comparison process (C) wet granulation in a fluid bed granulator (1.5 kg), atomised water about 300-400 g, charging agent maltodextrin, 70%/30%
[17] = comparison process (C) wet granulation in a fluid bed granulator (1.5 kg), atomised water about 300-400 g, charging agent sugar, 50%/50%
[18] = comparison process (C) wet granulation in a fluid bed granulator (1.5 kg), atomised water about 300-400 g, charging agent sugar, 70%/30%
[19] = comparison process (C) wet granulation in a fluid bed granulator, atomised water about 300-400 g, charging agent mannitol, 50%/50%
[20] = comparison process (C) wet granulation in a fluid bed granulator, atomised water about 300-400 g, charging agent mannitol, 70%/30%
[21] = comparison process (D.a) granulation in a powder kneader (1 kg), active 90% w/w + liquid polysorbate 80 pure 10% w/w
[22] = comparison process (D.b) mixing in a cube (1 kg), active 90% w/w + powder sucrester 10% w/w
[23] = comparison process (E) wet granulation in a fluid bed granulator, active 90% + aqueous solution of polysorbate 80 at 10% w/w, 10%
[24] = solid substrate 90% w/w (900 g) + liquid polysorbate 80 pure at 100% 10% w/w (100 g)
[25] = solid substrate 93% w/w (930 g) + liquid polysorbate 80 pure at 100% 7% w/w (70 g)
[26] = solid substrate 95% w/w (950 g) + liquid polysorbate 80 pure at 100% 5% w/w (50 g)

| Compound | Contact angle on pellet [1] | Visual degree of wettability of the active component [2, 3] | Visual degree of wettability of the active component [2, 4] | Visual degree of wettability of the active component [2, 5] | Visual degree of wettability of the active component [2, 6] | Visual degree of wettability of the active component [2, 7] | Visual degree of wettability of the active component [2, 8] | Visual degree of wettability of the active component [2, 9] | Visual degree of wettability of the active component [2, 10] | Visual degree of wettability of the active component [2, 11] | Visual degree of wettability of the active component [2, 12] | Visual degree of wettability of the active component [2, 13] | Visual degree of wettability of the active component [2, 14] | Visual degree of wettability of the active component [2, 15] | Visual degree of wettability of the active component [2, 16] | Visual degree of wettability of the active component [2, 17] | Visual degree of wettability of the active component [2, 18] | Visual degree of wettability of the active component [2, 19] | Visual degree of wettability of the active component [2, 20] | Visual degree of wettability of the active component [2, 21] | further results |
| --- | --- | --- | --- | --- | --- | --- | --- | --- | --- | --- | --- | --- | --- | --- | --- | --- | --- | --- | --- | --- | --- |
| CCCCCCCCCCCCCCCC(=O)NCCO [PEA, Palmitoylethanolamide] | 72 ± 4 ° | Nil | Nil | Nil | Nil | Nil | Nil | Nil/low | Nil/low | Nil/low | Nil/low | Nil/low | Nil/low | Low/Sufficient | Low | Low/Sufficient | Low | Low/Sufficient | Low | Low/Sufficient | Contact angle on film (°) ([1]; listed as PEA as such): 117 ± 7 °; Contact angle on film (°) ([1]; listed as PEA as such second batch): 114 ± 5 °; Visual degree of wettability of the active component [2, 22]: Nil; Visual degree of wettability of the active component [2, 23]: Low/Sufficient; Visual degree of wettability of the solid formulation [2, 24]: Excellent; Visual degree of wettability of the solid formulation [2, 25]: Fair; Visual degree of wettability of the solid formulation [2, 26]: Fair |
| alpha-lactalbumin | 61 ± 6 ° | Nil | Nil | Nil | Nil | Nil | Nil | Nil/low | Nil/low | Nil/low | Nil/low | Nil/low | Nil/low | Low/Sufficient | Low | Low/Sufficient | Low | Low/Sufficient | Low | Low/Sufficient | Contact angle on film (°) [1]: 69 ± 3 °; Visual degree of wettability of the active component [2, 22]: Nil; Visual degree of wettability of the active component [2, 23]: Low/Sufficient; Visual degree of wettability of the solid formulation [2, 24]: Excellent; Visual degree of wettability of the solid formulation [2, 25]: Fair; Visual degree of wettability of the solid formulation [2, 26]: Fair |

Reference: patent US20230079100A1, “PROCESS FOR PREPARING SOLID FORMULATIONS COMPRISING A HYDROPHOBIC COMPOUND DISPERSIBLE IN A COLD LIQUID AND RELATIVE SOLID FORMULATIONS” (NUTRILINEA S.R.L., priority 2020, published 2023)
